Source: article PMC3961306, “Comparison of the Cancer Gene Targeting and Biochemical Selectivities of All Targeted Kinase Inhibitors Approved for Clinical Use” (PLoS ONE, 2014)

Legend:
Assay in all cases: Kinase profiling in a biochemical assay panel (mobility shift assays and ELISA), %-inhibition at 1 μM; selectivity entropy
[1] = target: T1, panel of more than 300 wild-type and mutant kinases (313 kinase panel) (Homo sapiens, UniProt Q96PN8)
T1 sequence (Q96PN8 1-268): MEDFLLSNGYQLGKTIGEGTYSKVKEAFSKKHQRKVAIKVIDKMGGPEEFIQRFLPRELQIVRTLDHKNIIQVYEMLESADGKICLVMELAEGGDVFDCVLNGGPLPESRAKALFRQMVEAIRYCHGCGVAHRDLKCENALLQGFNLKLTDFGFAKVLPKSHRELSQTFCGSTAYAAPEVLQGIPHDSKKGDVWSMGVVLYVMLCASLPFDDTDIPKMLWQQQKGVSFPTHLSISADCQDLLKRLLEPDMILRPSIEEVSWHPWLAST

[2] = target: panel of more than 300 wild-type and mutant kinases (313 kinase panel) (Homo sapiens, UniProt Q9P0L2)
panel of more than 300 wild-type and mutant kinases (313 kinase panel) (Homo sapiens, UniProt Q9P0L2), sequence (Q9P0L2 whole entry, change not shown): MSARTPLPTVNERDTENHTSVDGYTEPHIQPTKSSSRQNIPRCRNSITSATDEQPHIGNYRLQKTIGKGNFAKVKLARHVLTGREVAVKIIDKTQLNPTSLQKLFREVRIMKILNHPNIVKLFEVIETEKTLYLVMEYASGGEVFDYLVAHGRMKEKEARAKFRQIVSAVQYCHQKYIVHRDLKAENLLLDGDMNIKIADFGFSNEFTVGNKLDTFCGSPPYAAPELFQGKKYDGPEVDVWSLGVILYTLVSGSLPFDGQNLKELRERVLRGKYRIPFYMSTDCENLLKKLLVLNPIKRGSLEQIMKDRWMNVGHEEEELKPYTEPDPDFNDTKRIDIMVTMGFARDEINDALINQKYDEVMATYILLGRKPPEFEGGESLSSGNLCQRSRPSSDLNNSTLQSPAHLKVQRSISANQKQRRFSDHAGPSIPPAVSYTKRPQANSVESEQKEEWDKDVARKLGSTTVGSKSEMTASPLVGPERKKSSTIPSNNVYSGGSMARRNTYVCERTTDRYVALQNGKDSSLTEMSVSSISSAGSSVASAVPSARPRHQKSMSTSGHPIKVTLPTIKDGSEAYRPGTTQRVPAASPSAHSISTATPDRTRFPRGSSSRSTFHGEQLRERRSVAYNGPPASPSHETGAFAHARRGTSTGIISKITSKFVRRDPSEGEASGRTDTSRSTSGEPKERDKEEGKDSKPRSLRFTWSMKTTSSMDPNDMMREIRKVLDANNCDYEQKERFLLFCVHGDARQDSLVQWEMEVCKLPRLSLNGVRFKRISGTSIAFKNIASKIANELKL

[3] = target: T2, panel of more than 300 wild-type and mutant kinases (313 kinase panel) (Homo sapiens, UniProt O15530)
T2 sequence (O15530 1-556): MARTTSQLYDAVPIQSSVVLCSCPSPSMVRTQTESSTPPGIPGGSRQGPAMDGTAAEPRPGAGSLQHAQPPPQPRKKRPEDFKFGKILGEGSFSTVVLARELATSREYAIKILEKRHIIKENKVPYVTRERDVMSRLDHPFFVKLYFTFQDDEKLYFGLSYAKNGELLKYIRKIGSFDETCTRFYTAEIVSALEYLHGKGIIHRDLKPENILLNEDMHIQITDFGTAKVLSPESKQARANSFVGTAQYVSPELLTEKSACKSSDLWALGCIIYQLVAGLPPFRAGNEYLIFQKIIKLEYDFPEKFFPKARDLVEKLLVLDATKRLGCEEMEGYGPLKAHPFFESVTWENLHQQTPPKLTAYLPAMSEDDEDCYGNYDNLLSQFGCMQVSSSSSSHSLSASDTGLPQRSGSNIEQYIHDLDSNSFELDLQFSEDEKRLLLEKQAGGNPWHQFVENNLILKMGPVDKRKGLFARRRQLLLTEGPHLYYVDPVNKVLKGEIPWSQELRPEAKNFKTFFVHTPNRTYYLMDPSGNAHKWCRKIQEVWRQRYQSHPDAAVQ

[4] = target: panel of more than 300 wild-type and mutant kinases (313 kinase panel) (Homo sapiens, UniProt P08922)
[5] = target: T3, panel of more than 300 wild-type and mutant kinases (313 kinase panel) (Homo sapiens, UniProt Q8IWQ3)
T3 sequence (Q8IWQ3 1-736): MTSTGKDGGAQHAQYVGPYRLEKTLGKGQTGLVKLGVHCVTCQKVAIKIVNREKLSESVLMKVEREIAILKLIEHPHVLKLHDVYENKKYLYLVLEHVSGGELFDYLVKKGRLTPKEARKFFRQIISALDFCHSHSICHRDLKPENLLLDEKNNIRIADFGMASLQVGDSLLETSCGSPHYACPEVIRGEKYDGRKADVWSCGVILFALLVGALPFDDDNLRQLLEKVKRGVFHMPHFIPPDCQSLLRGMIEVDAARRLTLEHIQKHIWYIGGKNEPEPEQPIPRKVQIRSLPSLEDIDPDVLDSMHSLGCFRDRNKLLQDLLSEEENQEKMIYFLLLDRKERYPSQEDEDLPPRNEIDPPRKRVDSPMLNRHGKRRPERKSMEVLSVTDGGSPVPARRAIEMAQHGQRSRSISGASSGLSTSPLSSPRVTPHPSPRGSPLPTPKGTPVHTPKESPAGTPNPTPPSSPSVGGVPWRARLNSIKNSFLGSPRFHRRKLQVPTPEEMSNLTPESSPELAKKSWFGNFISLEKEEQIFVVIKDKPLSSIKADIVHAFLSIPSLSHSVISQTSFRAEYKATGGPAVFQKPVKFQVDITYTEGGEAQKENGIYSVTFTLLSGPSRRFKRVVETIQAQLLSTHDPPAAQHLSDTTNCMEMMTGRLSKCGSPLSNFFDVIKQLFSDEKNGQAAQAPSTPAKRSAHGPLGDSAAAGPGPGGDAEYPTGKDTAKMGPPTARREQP

SMILES	%-inhibition of TSSK3 ([1]; kinase TSSK3, compound at 1 μM) [%]	%-inhibition of MARK1 ([2]; 1 µM) [%]	%-inhibition of PDK1 ([3]; kinase PDK1, 1 μM) [%]	%-inhibition of ROS ([4]; kinase ROS, 1 μM) [%]	%-inhibition, BRSK2 ([5]; kinase BRSK2, 1 μM compound) [%]	%-inhibition of MARK1 ([2]; kinase MARK1, compound at 1 μM) [%]	%-inhibition of TSSK3 ([1]; 1 µM) [%]	%-inhibition of PDK1 ([3]; 1 µM) [%]	%-inhibition of ROS ([4]; 1 µM) [%]	%-inhibition, BRSK2 ([5]; 1 µM) [%]
COc1cc(Nc2c(C#N)cnc3cc(OCCCN4CCN(C)CC4)c(OC)cc23)c(Cl)cc1Cl [bosutinib]	-2	31	-4.64	2.77	-12					
COc1cc2nccc(Oc3ccc(NC(=O)C4(C(=O)Nc5ccc(F)cc5)CC4)cc3)c2cc1OC [cabozantinib]	-1.06		-7		5.62	-1				
C[C@@H](Oc1cc(-c2cnn(C3CCNCC3)c2)cnc1N)c1c(Cl)ccc(F)c1Cl [crizotinib]	-0.601		-5		8	27				
CC(C)(C)c1nc(-c2cccc(NS(=O)(=O)c3c(F)cccc3F)c2F)c(-c2ccnc(N)n2)s1 [dabrafenib]	-8		-5.38	8.55	30	-15				
Cc1nc(Nc2ncc(C(=O)Nc3c(C)cccc3Cl)s2)cc(N2CCN(CCO)CC2)n1 [dasatinib]	-2.69									
C#Cc1cccc(Nc2ncnc3cc(OCCOC)c(OCCOC)cc23)c1 [erlotinib]		11					-7	3	8.54	3.75
CO[C@H]1C[C@@H]2CC[C@@H](C)[C@@](O)(O2)C(=O)C(=O)N2CCCC[C@H]2C(=O)O[C@H]([C@H](C)C[C@@H]2CC[C@@H](OCCO)[C@H](OC)C2)CC(=O)[C@H](C)/C=C(\C)[C@@H](O)[C@@H](OC)C(=O)[C@H](C)C[C@H](C)/C=C/C=C/C=C/1C [everolimus]	-3		-9	-0.608	-0.919	-0.63				
O=S(=O)(c1cccc2cnccc12)N1CCCNCC1 [fasudil]	-6		-2.83	4.27	6	-9				
CS(=O)(=O)CCNCc1ccc(-c2ccc3ncnc(Nc4ccc(OCc5cccc(F)c5)c(Cl)c4)c3c2)o1 [lapatinib]	0.192	9		5.46	3.58			-2.71		
Cc1cn(-c2cc(NC(=O)c3ccc(C)c(Nc4nccc(-c5cccnc5)n4)c3)cc(C(F)(F)F)c2)cn1 [nilotinib]	12		-4.33		-0.27	12			-0.679	
Cc1ccc(Nc2nccc(N(C)c3ccc4c(C)n(C)nc4c3)n2)cc1S(N)(=O)=O [pazopanib]	4.41		-0.284	94	-2.18	2.19				
Cc1ccc(C(=O)Nc2ccc(CN3CCN(C)CC3)c(C(F)(F)F)c2)cc1C#Cc1cnc2cccnn12 [ponatinib]	-4.67		-5	58	-11					
CNC(=O)c1cc(Oc2ccc(NC(=O)Nc3ccc(Cl)c(C(F)(F)F)c3)c(F)c2)ccn1 [regorafenib]	-4.39		-3	5	-15	-24				
N#CC[C@H](C1CCCC1)n1cc(-c2ncnc3[nH]ccc23)cn1 [ruxolitinib]	-3		-3.16		-12				54	
CO[C@H]1C[C@@H]2CC[C@@H](C)[C@@](O)(O2)C(=O)C(=O)N2CCCC[C@H]2C(=O)O[C@H]([C@H](C)C[C@@H]2CC[C@@H](OC(=O)C(C)(CO)CO)[C@H](OC)C2)CC(=O)[C@H](C)/C=C(\C)[C@@H](O)[C@@H](OC)C(=O)[C@H](C)C[C@H](C)/C=C/C=C/C=C/1C [temsirolimus]	-2.63		-8	-2	-9	-5				
CC(=O)Nc1cccc(-n2c(=O)n(C3CC3)c(=O)c3c(Nc4ccc(I)cc4F)n(C)c(=O)c(C)c32)c1 [trametinib]	-8		-5.52	-0.611	5.38	-17				
COc1cc2c(Nc3ccc(Br)cc3F)ncnc2cc1OCC1CCN(C)CC1 [vandetanib]	-2.54		-4.37	48	-10	-14				
CCCS(=O)(=O)Nc1ccc(F)c(C(=O)c2c[nH]c3ncc(-c4ccc(Cl)cc4)cc23)c1F [vemurafenib]	-3.19		-4	2	-6	-9				
